{"source": "patent US20160051665A1", "about": "“INDUCTION OF IMMUNE RESPONSE” (priority 2010, published 2016)", "key": {"[1]": {"tested_on": "HBV-containing HepG2.2.15 cells", "assay": "interferon-γ ELISpot: peptide-primed CTLs against BuCas-treated target cells", "type": "cell-based, human", "conditions": "BuCas 1 mg/ml twice at 3 day interval, FIG. 2B", "procedure": "Heparinized blood from healthy HLA-A2 donors was purchased from Research Blood Components, LLC, (Brighton, Mass.). Peripheral blood mononuclear cells were purified and cultured as described (13, 21). After initial stimulation with synthetic peptide, T cells were re-stimulated with CD4/CD8 T cell depleted autologous monocytes pulsed with synthetic peptide at 10 μg/ml for 5 days. IL-2 treatment and in vitro re-stimulation were repeated thrice prior to use of in vitro expanded T cells in ELISpot assays.\nIn vitro expanded CTLs were used as effectors in ELISpot assays to assess antigen stimulated interferon-γ release according to the manufacturer's instructions (BD-Pharmingen, San Jose, Calif.). Target cells were HepG2 human hepatoma cells (HBV negative; American Type Culture Collection) or HBV-containing HepG2.2.15 cells (22). […]\nPeptides presented on the surface of a cell in the context of the MHC class I complex should be recognized with high sensitivity upon incubation with cognate peptide-primed CTLs, with specific killing of the target cells. […] Target cell recognition was quantified by interferon-γ ELISpot assay.\nThe ability of in vitro generated CTLs to recognize and secrete interferon-γ was evaluated by ELISpot assay. […] The P value was calculated from a Student's t-Test analysis of experimental results."}, "glucosidase I": {"biological_target": "T1, glucosidase I (Homo sapiens, UniProt Q13724)", "T1 sequence (Q13724 1-837)": "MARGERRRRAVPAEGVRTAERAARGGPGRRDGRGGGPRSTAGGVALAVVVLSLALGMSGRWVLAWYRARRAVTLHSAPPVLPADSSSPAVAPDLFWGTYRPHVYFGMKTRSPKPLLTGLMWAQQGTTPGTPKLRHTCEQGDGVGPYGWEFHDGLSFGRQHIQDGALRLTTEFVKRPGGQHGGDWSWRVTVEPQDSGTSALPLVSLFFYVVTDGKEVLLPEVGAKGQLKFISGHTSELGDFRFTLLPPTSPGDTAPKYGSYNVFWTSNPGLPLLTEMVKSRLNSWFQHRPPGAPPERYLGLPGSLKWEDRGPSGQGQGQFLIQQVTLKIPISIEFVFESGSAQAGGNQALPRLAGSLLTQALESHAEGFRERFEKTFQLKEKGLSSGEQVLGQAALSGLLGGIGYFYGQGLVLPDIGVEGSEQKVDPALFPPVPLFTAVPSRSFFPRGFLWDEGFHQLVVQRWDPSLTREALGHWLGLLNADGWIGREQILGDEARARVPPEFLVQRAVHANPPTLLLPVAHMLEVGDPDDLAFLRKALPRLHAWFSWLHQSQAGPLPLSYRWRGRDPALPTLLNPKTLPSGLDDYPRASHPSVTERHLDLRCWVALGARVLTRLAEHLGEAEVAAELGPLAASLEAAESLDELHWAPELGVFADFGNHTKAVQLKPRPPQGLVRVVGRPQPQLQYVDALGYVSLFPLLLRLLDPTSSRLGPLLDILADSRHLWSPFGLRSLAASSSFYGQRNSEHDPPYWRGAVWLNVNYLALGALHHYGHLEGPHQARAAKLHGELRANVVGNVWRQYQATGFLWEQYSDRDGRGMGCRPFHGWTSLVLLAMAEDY", "conditions": "cited from earlier work"}}}
{"compound": "CCCC(=O)O[C@H]1CN2CC[C@H](O)[C@@H]2[C@@H](O)[C@H]1O", "note": "[BuCas, 6-O-butanoyl castanospermine]", "values": [{"measurement": "presentation of the D-peptide epitope by target cells", "setting": "[1]; CTLs primed with D-peptide", "result": "increased significantly"}, {"measurement": "presentation of the N-peptide epitope by target cells", "setting": "[1]; CTLs primed with N-peptide", "result": "reduced"}, {"measurement": "potency as inhibitor of glucosidase I relative to deoxynojirimycin", "setting": "glucosidase I", "result": "more potent inhibitors of glucosidase I than deoxynojirimycin"}]}
